Reference: patent US11850252B2, “Use of nor-ursodeoxycholic acid for reducing liver fat” (Dr. Falk Pharma GmbH, priority 2017, dated 2023)
Values joined by “and” are separate entries in the source; they are usually repeats but may differ in a detail not shown here. Equal entries are not always repeated.

System: Patients with a clinical diagnosis of non-alcoholic hepatic steatosis
Test: Liver enzymes (serum ALT, AST, GGT, AP, bilirubin), phase II clinical trial;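 for Serum bilirubin, Mean ± SD: unit mg/dL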
Format: in vivo, human
Settings: for change of AST: V2 to V6-LOCF; for ALT change, Mean ± SD / ALT/AST ratio change, Mean ± SD / AST change, Mean ± SD / Serum bilirubin change, Mean ± SD: V6 (LOCF)-V2; for patients fulfilling outcome criterion ALT≤0.8 ULN: patients with ALT>0.8 at baseline; for patients fulfilling outcome criterion ALT<ULN: patients with ALT>1.0 at baseline; for patients fulfilling outcome criterion ALT<1.5 ULN: patients with ALT>1.5 at baseline
Protocol: A double-blinded, randomized, placebo-controlled phase II clinical trial was conducted as described in the following.
Patients with a clinical diagnosis of non-alcoholic hepatic steatosis were randomized to a 12-week treatment period and a 4-week follow-up. Patients were divided into three groups. The first groups received 1,500 mg Nor-UDCA per day (6 capsules with 250 mg Nor-UDCA in each capsule). The second group received 500 mg Nor-UDCA per day (2 capsules with 250 mg Nor-UDCA in each capsule and 4 capsules with 250 mg placebo in each capsule). The third group received 6 capsules with 250 mg placebo in each capsule.
The effects of Nor-UDCA on liver enzyme values have been assessed with respect to the courses of ALT, AST, GGT, AP and serum bilirubin. In addition, treatment effects with respect to pre-defined outcome criteria based on the upper limits of normal (ULN) of ALT, AST and GGT were examined.
The serum levels of ALT, AST, GGT, AP and serum bilirubin were determined by established standard laboratory methods.

[1] = N500 (500 mg/day), V2 baseline week 0
[2] = N1500 (1,500 mg/day), V2 baseline week 0
[3] = N1500 (1,500 mg/day), V3 week 2
[4] = N1500 (1,500 mg/day), V4 week 4
[5] = N1500 (1,500 mg/day), V5 week 8
[6] = N1500 (1,500 mg/day), V6 (LOCF)
[7] = N1500 (1,500 mg/day), V6 week 12

## CC(CC(=O)O)[C@H]1CCC2[C@H]3C(CC[C@@]21C)[C@@]1(C)CCC(O)C[C@H]1C[C@@H]3O (some centres unmarked) [Nor-UDCA, 24-nor-ursodeoxycholic acid]
N500 (500 mg/day)
  mean absolute change of ALT from V2 to V6-LOCF: −7.0 U/I
  patients fulfilling criterion AST>0.33 ULN to ≤0.67 ULN: 26.4%
  patients fulfilling outcome criterion GGT>0.33 ULN to ≤0.67: 13.0%
  patients with combined criterion of ALT and/or AST decrease 15%: 49.3%
  proportion of patients fulfilling criterion AST<1.5 ULN: 50.0%
  proportion of patients fulfilling criterion AST<ULN: 27.3%
  proportion of patients, criterion GGT ULN: 12.2%
  change of AST: −3.8 U/I
  ALT change, Mean ± SD: −7.0 ± 27.4 U/l
  ALT/AST ratio change, Mean ± SD: −0.05 and −0.05 ± 0.37
  AST change, Mean ± SD: −3.8 ± 14.3 U/l
  Serum bilirubin change, Mean ± SD: -0.01 ± 0.22 mg/dL
  patients fulfilling outcome criterion ALT≤0.8 ULN: 14.8%
  patients fulfilling outcome criterion ALT<ULN: 16.9%
  patients fulfilling outcome criterion ALT<1.5 ULN: 37.9%
N500 (500 mg/day), V2
  GGT: 144.7 U/I
[1]
  ALT, Mean ± SD: 80.3 ± 33.3 U/l
  ALT/AST, Mean ± SD: 1.71 ± 0.50
  AP, Mean ± SD: 83.9 ± 27.6 U/l
  AST, Mean ± SD: 49.8 ± 27.4 U/l
  GGT, Mean ± SD: 144.7 ± 160.0 U/l
  Serum bilirubin, Mean ± SD: 0.64 ± 0.40 mg/dL
N500 (500 mg/day), V3 week 2
  ALT, Mean ± SD: 79.4 ± 40.6 U/l
  ALT/AST, Mean ± SD: 1.70 ± 0.51
  AP, Mean ± SD: 88.3 ± 34.3 U/l
  AST, Mean ± SD: 47.9 ± 22.4 U/l
  GGT, Mean ± SD: 151.9 ± 166.4 U/l
  Serum bilirubin, Mean ± SD: 0.63 ± 0.38 mg/dL
N500 (500 mg/day), V4 week 4
  ALT, Mean ± SD: 75.2 ± 34.6 U/l
  ALT/AST, Mean ± SD: 1.67 ± 0.48
  AP, Mean ± SD: 86.5 ± 34.3 U/l
  AST, Mean ± SD: 46.0 ± 18.8 U/l
  GGT, Mean ± SD: 138.9 ± 141.6 U/l
  Serum bilirubin, Mean ± SD: 0.61 ± 0.38 mg/dL
N500 (500 mg/day), V5 week 8
  ALT, Mean ± SD: 75.6 ± 36.8 U/l
  ALT/AST, Mean ± SD: 1.66 ± 0.47
  AP, Mean ± SD: 86.1 ± 30.0 U/l
  AST, Mean ± SD: 46.9 ± 24.4 U/l
  GGT, Mean ± SD: 133.6 ± 124.2 U/l
  Serum bilirubin, Mean ± SD: 0.64 ± 0.41 mg/dL
N500 (500 mg/day), V6 (LOCF)
  ALT, Mean ± SD: 72.8 ± 33.2 U/l
  ALT/AST, Mean ± SD: 1.67 ± 0.48
  AP, Mean ± SD: 86.9 ± 32.2 U/l
  AST, Mean ± SD: 45.6 ± 24.7 U/l
  GGT, Mean ± SD: 137.6 ± 144.8 U/l
  Serum bilirubin, Mean ± SD: 0.62 ± 0.38 mg/dL
N500 (500 mg/day), V6-LOCF
  GGT: 137.6 U/I
N500 (500 mg/day), V6 week 12
  ALT, Mean ± SD: 70.8 ± 31.6 U/l
  ALT/AST, Mean ± SD: 1.66 ± 0.45
  AP, Mean ± SD: 87.4 ± 32.7 U/l
  AST, Mean ± SD: 43.9 ± 20.4 U/l
  GGT, Mean ± SD: 139.2 ± 147.6 U/l
  Serum bilirubin, Mean ± SD: 0.62 ± 0.36 mg/dL
N1500 (1,500 mg/day)
  mean absolute change of ALT from V2 to V6-LOCF: −17.2 U/I
  patients fulfilling criterion AST>0.33 ULN to ≤0.67 ULN: 32.7%
  patients fulfilling outcome criterion GGT>0.33 ULN to ≤0.67: 21.6%
  patients with combined criterion of ALT and/or AST decrease 15%: 71.6%
  proportion of patients fulfilling criterion AST<1.5 ULN: 75.0%
  proportion of patients fulfilling criterion AST<ULN: 54.5%
  proportion of patients, criterion GGT ULN: 31.0%
  change of AST: −8.7 U/I
  ALT change, Mean ± SD: −17.2 ± 23.3 U/l
  ALT/AST ratio change, Mean ± SD: −0.14 and −0.14 ± 0.42
  AST change, Mean ± SD: −8.7 ± 13.6 U/l
  Serum bilirubin change, Mean ± SD: -0.03 ± 0.20 mg/dL
  patients fulfilling outcome criterion ALT≤0.8 ULN: 17.5%
  patients fulfilling outcome criterion ALT<ULN: 35.7%
  patients fulfilling outcome criterion ALT<1.5 ULN: 53.1%
N1500 (1,500 mg/day), V2
  GGT: 178.8 U/I
[2]
  ALT, Mean ± SD: 78.6 ± 34.2 U/l
  ALT/AST, Mean ± SD: 1.68 ± 0.53
  AP, Mean ± SD: 92.0 ± 36.6 U/l
  AST, Mean ± SD: 49.3 ± 25.1 U/l
  GGT, Mean ± SD: 178.8 ± 205.6 U/l
  Serum bilirubin, Mean ± SD: 0.61 ± 0.32 mg/dL
[3]
  ALT, Mean ± SD: 72.8 ± 33.1 U/l
  ALT/AST, Mean ± SD: 1.66 ± 0.41
  AP, Mean ± SD: 95.4 ± 40.1 U/l
  AST, Mean ± SD: 43.7 ± 15.7 U/l
  GGT, Mean ± SD: 170.1 ± 217.9 U/l
  Serum bilirubin, Mean ± SD: 0.52 ± 0.26 mg/dL
[4]
  ALT, Mean ± SD: 62.6 ± 24.7 U/l
  ALT/AST, Mean ± SD: 1.53 ± 0.41
  AP, Mean ± SD: 90.9 ± 32.0 U/l
  AST, Mean ± SD: 42.6 ± 19.9 U/l
  GGT, Mean ± SD: 128.5 ± 126.1 U/l
  Serum bilirubin, Mean ± SD: 0.53 ± 0.26 mg/dL
[5]
  ALT, Mean ± SD: 62.0 ± 27.9 U/l
  ALT/AST, Mean ± SD: 1.54 ± 0.34
  AP, Mean ± SD: 91.1 ± 33.3 U/l
  AST, Mean ± SD: 40.5 ± 16.3 U/l
  GGT, Mean ± SD: 111.5 ± 112.7 U/l
  Serum bilirubin, Mean ± SD: 0.54 ± 0.28 mg/dL
[6]
  ALT, Mean ± SD: 61.8 ± 28.3 U/l
  ALT/AST, Mean ± SD: 1.54 ± 0.34
  AP, Mean ± SD: 91.8 ± 32.1 U/l
  AST, Mean ± SD: 40.8 ± 19.1 U/l
  GGT, Mean ± SD: 111.7 ± 116.3 U/l
  Serum bilirubin, Mean ± SD: 0.57 ± 0.31 mg/dL
N1500 (1,500 mg/day), V6-LOCF
  GGT: 111.7 U/I
[7]
  ALT, Mean ± SD: 62.8 ± 29.1 U/l
  ALT/AST, Mean ± SD: 1.55 ± 0.34
  AP, Mean ± SD: 92.9 ± 31.3 U/l
  AST, Mean ± SD: 41.3 ± 19.8 U/l
  GGT, Mean ± SD: 109.6 ± 115.8 U/l
  Serum bilirubin, Mean ± SD: 0.56 ± 0.32 mg/dL
N1500 and N500 versus Placebo
  differences in the course of AP and serum bilirubin values between N1500, N500 and Placebo: no relevant differences
